Assay results from patent US9468640B2, “Piperidin-4-yl-pyridazin-3-ylamine derivatives as fast dissociating dopamine 2 receptor antagonists” (Janssen Pharmaceutica N.V., priority 2005, dated 2016).

What was measured:
[1] = molecular target: T1, human Dopamine D2L receptor (Homo sapiens, UniProt P14416); test: In vitro binding affinity for human D2L receptor ([3H]spiperone competition); settings: membranes of human D2L receptor-transfected CHO cells, 30 min, 37° C.
T1 construct: expressed in transfected cells; host or cells: CHO cells
Protocol: Frozen membranes of human Dopamine D2L receptor-transfected CHO cells were thawed, briefly homogenised using an Ultra-Turrax T25 homogeniser and diluted in Tris-HCl assay buffer containing NaCl, CaCl2, MgCl2, KCl (50, 120, 2, 1, and 5 mM respectively, adjusted to pH 7.7 with HCl) to an appropriate protein concentration optimised for specific and non-specific binding. Radioligand [^3H]Spiperone (NEN, specific activity ˜70 Ci/mmol) was diluted in assay buffer at a concentration of 2 nmol/L. Prepared radioligand (50 μl), along with 50 μl of either the 10% DMSO control, Butaclamol (10^−6 mol/l final concentration), or compound of interest, was then incubated (30 min, 37° C.) with 400 μl of the prepared membrane solution. Membrane-bound activity was filtered through a Packard Filtermate harvester onto GF/B Unifilterplates and washed with ice-cold Tris-HCl buffer (50 mM; pH 7.7; 6×0.5 ml). Filters were allowed to dry before adding scintillation fluid and counting in a Topcount scintillation counter. Percentage specific bound and competition binding curves were calculated using S-Plus software (Insightful).

T1 sequence (P14416 whole entry): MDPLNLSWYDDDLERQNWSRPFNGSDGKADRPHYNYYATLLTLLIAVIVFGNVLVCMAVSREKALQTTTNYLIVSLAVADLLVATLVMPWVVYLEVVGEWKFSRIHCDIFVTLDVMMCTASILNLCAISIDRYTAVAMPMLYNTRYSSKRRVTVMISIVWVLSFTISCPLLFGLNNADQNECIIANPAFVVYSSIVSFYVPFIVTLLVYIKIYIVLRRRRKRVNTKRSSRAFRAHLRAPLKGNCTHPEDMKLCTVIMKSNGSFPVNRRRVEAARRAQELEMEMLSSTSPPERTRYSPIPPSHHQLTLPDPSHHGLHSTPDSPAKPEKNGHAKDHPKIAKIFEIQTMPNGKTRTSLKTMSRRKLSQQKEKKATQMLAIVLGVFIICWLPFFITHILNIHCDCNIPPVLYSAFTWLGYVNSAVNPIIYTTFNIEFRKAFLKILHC

Compound | IC50 [1] | melting point
CC(c1ccc(F)c(F)c1)N1CCC(Nc2ccc(C(F)(F)F)nn2)CC1 (racemic) [Example E45, (R,S)—N-[1-(3,4-difluoro-α-methylbenzyl)piperidin-4-yl]-6-(trifluoromethyl)pyridazin-3-amine] | < 6.31 µM | –
Fc1ccc(CN2CCC(Nc3ccc(C(F)(F)F)nn3)CC2)cc1 [Example E2, N-[1-(4-fluorobenzyl)piperidin-4-yl]-6-(trifluoromethyl)pyridazin-3-amine] | – | 163.3 to 165.3 °C
Fc1ccccc1CN1CCC(Nc2ccc(C(F)(F)F)nn2)CC1 [Example E8, N-[1-(2-fluorobenzyl)piperidin-4-yl]-6-(trifluoromethyl)pyridazin-3-amine] | < 6.31 µM | –
CN(c1ccc(Cl)nn1)C1CCN(Cc2cccc(C(F)(F)F)c2)CC1 [Example E25, N-[1-(3-trifluoromethylbenzyl)piperidin-4-yl]-N-methyl-6-chloropyridazin-3-amine] | < 6.31 µM | –
COc1ccc(CN2CCC(Nc3ccc(C(F)(F)F)nn3)CC2)cc1F [Example E41, N-[1-(3-fluoro-4-methoxybenzyl)piperidin-4-yl]-6-(trifluoromethyl)pyridazin-3-amine] | < 6.31 µM | –
Fc1ccc(CN2CCC(Nc3ccc(C(F)(F)F)nn3)CC2)c(F)c1 [Example E42, N-[1-(2,4-difluorobenzyl)piperidin-4-yl]-6-(trifluoromethyl)pyridazin-3-amine] | < 6.31 µM | –
CC(c1ccc(F)cc1)N1CCC(Nc2ccc(C(F)(F)F)nn2)CC1 (stereo not drawn) [Example E44, N-[1-(4-fluoro-α-methylbenzyl)piperidin-4-yl]-6-(trifluoromethyl)pyridazin-3-amine] | < 6.31 µM | –
